Like-named read-outs stand apart in the source and are kept apart here. Bridge positions count the residues as written; N and C are the ends. Square brackets hold non-standard residues; d marks the D form. Peptide text beside a SMILES is read from it. 1Nal = N[C@@H](Cc1cccc2ccccc12)C(=O)O

In experiment [1] the target is T1, human Kv1.3 (CHO) (Homo sapiens, UniProt P22001).
T1 construct: expressed in transfected cells
The experiment can be described thus: cell-based. The class given is cell-based.

For experiment [2], the system named is thapsigargin-induced IL-2 production in human whole blood. Conditions: for IC50: read-out: Analogue Activity (IC50) WB/IL-2.
The target of experiment [3] is T2, human Kv1.3 (Homo sapiens, UniProt P22001). It is filed as cell-based. On the set-up: expressed in transfected cells.
T2 sequence (P22001 whole entry): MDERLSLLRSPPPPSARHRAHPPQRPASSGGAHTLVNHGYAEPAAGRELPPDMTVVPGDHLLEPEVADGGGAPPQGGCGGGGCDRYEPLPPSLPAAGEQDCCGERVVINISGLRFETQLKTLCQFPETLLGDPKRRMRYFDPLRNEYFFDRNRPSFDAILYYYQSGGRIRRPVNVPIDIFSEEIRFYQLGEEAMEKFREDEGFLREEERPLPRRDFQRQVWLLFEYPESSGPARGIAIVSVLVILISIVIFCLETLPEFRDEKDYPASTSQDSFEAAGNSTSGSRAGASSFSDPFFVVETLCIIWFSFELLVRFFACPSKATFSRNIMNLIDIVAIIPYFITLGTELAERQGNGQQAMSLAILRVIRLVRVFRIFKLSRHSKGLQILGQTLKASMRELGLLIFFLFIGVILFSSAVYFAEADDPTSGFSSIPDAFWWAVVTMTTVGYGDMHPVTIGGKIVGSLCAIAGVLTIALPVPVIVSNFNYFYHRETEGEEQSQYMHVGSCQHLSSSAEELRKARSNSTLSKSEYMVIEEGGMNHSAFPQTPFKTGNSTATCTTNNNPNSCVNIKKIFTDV
Experiment [4] deals with T2, human Kv1.3. As to the kind of experiment: cell-based.
For experiment [5], the system named is thapsigargin-induced IFN-g production in human whole blood. It is filed as cell-based. The conditions noted are these: read-out: Analogue Activity (IC50) WB/IFNg.

T1 sequence (P22001 whole entry): as above

Consider `CC[C@H](C)[C@@H]1NC(=O)[C@H](CCCCN)NC(=O)[C@@H](NC(=O)[C@H](CCCCN)NC(=O)[C@@H](NC(=O)[C@H](CC(N)=O)NC(=O)[C@@H](NC(=O)[C@@H](NC(=O)[C@@H](NC(=O)CN)C(C)C)[C@@H](C)CC)[C@@H](C)CC)C(C)C)CSSC[C@@H]2NC(=O)[C@H](CCCCN)NC(=O)CNC(=O)[C@H](Cc3ccccc3)NC(=O)[C@H](CCCNC(=N)N)NC(=O)[C@H](CCSC)NC(=O)CNC(=O)[C@H](C)NC(=O)[C@H](CCCCN)NC(=O)[C@H](CCCCN)NC(=O)[C@@H]3CSSC[C@@H](C(=O)N[C@H](C(=O)N4CCC[C@H]4C(=O)N[C@@H](CCCCN)C(=O)O)[C@@H](C)O)NC(=O)[C@H](Cc4c[nH]cn4)NC(=O)[C@H](CSSC[C@H](NC(=O)[C@H](CCC(N)=O)NC(=O)[C@H](CCCNC(=N)N)NC(=O)[C@H](CO)NC1=O)C(=O)N[C@@H](CC(C)C)C(=O)N[C@@H](CCC(=O)O)C(=O)N1CCC[C@H]1C(=O)N3)NC(=O)[C@H](CCCCN)NC(=O)CNC(=O)[C@H](CC(N)=O)NC(=O)[C@H](C)NC2=O` [OSK1[Ala-29]] (H-GVIINVKCKISRQCLEPCKKAGMRFGKCANGKCHCTPK-OH; disulfide 8-28, 14-33, 18-35), for which the “inhibition of Kv1.3 current and selectivity over Kv1.1 by IonWorks” value in experiment [1] was “potent inhibition of the Kv1.3 current and improved selectivity over Kv1.1”. Further, the “potency relative to cyclosporin A in blocking the cytokine response” value in experiment [2] was “several orders of magnitude more potent”. For the same molecule, the IC50 in experiment [3] (read-out: IC50 on CHO/Kv1.3) came to 0.033 nM.

Consider E. coli-derived ShK[2-35]-L-Fc, for which the IC50 in experiment [1] (read-out: Kv1.3 IC50 by IWQ) amounted to 4.9 nM.

Regarding E. coli-derived Fc-L-ShK[1-35], in experiment [4] (read-out: Kv1.3 IC50 by WCVC), the IC50 is 1.4 nM.

Regarding `CC[C@H](C)[C@@H]1NC(=O)[C@H](CCCCN)NC(=O)[C@@H](NC(=O)[C@H](CCCCN)NC(=O)[C@@H](NC(=O)[C@H](CC(N)=O)NC(=O)[C@@H](NC(=O)[C@@H](NC(=O)[C@@H](NC(=O)CN)C(C)C)[C@@H](C)CC)[C@@H](C)CC)C(C)C)CSSC[C@@H]2NC(=O)[C@H](CCCCN)NC(=O)CNC(=O)[C@H](Cc3ccccc3)NC(=O)[C@H](CCCNC(=N)N)NC(=O)[C@H](CCSC)NC(=O)CNC(=O)[C@H](C)NC(=O)[C@H](CCCCN)NC(=O)[C@H](CCCCN)NC(=O)[C@@H]3CSSC[C@@H](C(=O)N[C@@H](CCC(=O)O)C(=O)N4CCC[C@H]4C(=O)N[C@@H](CCCCN)C(=O)O)NC(=O)[C@H](Cc4c[nH]cn4)NC(=O)[C@H](CSSC[C@H](NC(=O)[C@H](CCC(N)=O)NC(=O)[C@H](CCCNC(=N)N)NC(=O)[C@H](CO)NC1=O)C(=O)N[C@@H](CC(C)C)C(=O)N[C@@H](CCC(=O)O)C(=O)N1CCC[C@H]1C(=O)N3)NC(=O)[C@H](CCCCN)NC(=O)CNC(=O)[C@H](CC(N)=O)NC(=O)[C@H](CCSC)NC2=O` [T36E] (H-GVIINVKCKISRQCLEPCKKAGMRFGKCMNGKCHCEPK-OH; disulfide 8-28, 14-33, 18-35), the IC50 is 1.74 nM in experiment [2] and 2.42 nM in experiment [5]. In experiment [3], the “Kv1.3 Selectivity (= Kv1.1/Kv.3 IC50)” value is 44.

`CC[C@H](C)[C@@H]1NC(=O)[C@H](CCCCN)NC(=O)[C@@H](NC(=O)[C@H](CCCCN)NC(=O)[C@@H](NC(=O)[C@H](CC(N)=O)NC(=O)[C@@H](NC(=O)[C@@H](NC(=O)[C@@H](NC(=O)CN)C(C)C)[C@@H](C)CC)[C@@H](C)CC)C(C)C)CSSC[C@@H]2NC(=O)[C@H](CCCCN)NC(=O)CNC(=O)[C@H](Cc3ccccc3)NC(=O)[C@H](CCCNC(=N)N)NC(=O)[C@H](CCSC)NC(=O)CNC(=O)[C@H](C)NC(=O)[C@H](CCCCN)NC(=O)[C@H](CCCCN)NC(=O)[C@@H]3CSSC[C@@H](C(=O)N[C@H](C(=O)N4CCC[C@H]4C(=O)N[C@@H](CCCCN)C(=O)O)[C@@H](C)O)NC(=O)[C@H](Cc4c[nH]cn4)NC(=O)[C@H](CSSC[C@H](NC(=O)[C@H](CCC(N)=O)NC(=O)[C@H](CCCNC(=N)N)NC(=O)[C@H](CO)NC1=O)C(=O)N[C@@H](CC(C)C)C(=O)N[C@@H](CCC(=O)O)C(=O)N1CCC[C@H]1C(=O)N3)NC(=O)[C@H](CCCCN)NC(=O)CNC(=O)[C@H](Cc1cccc3ccccc13)NC(=O)[C@H](CCSC)NC2=O` [N30Nal] (H-GVIINVKCKISRQCLEPCKKAGMRFGKCM[1Nal]GKCHCTPK-OH; disulfide 8-28, 14-33, 18-35): the IC50 in experiment [1] is > 3.33 nM; in experiment [5] it was 37 nM.

For the molecule `CC[C@H](C)[C@@H]1NC(=O)[C@@H](NC(=O)[C@@H](N)CO)CSSC[C@@H](C(=O)O)NC(=O)[C@H]([C@@H](C)O)NC(=O)CNC(=O)[C@@H]2CSSC[C@@H]3NC(=O)[C@H](CCC(N)=O)NC(=O)[C@H](Cc4ccccc4)NC(=O)[C@H](C)NC(=O)[C@H]([C@@H](C)O)NC(=O)[C@H](CSSC[C@H](NC(=O)[C@H](Cc4ccccc4)NC(=O)[C@H](CO)NC(=O)[C@H](CC(C)C)NC(=O)[C@H](CCCNC(=N)N)NC(=O)[C@H](Cc4ccc(O)cc4)NC(=O)[C@H](CCCCN)NC(=O)[C@H](CCSC)NC(=O)[C@H](CO)NC(=O)[C@H](Cc4c[nH]cn4)NC(=O)[C@H](CCCCN)NC3=O)C(=O)N[C@@H](CCCNC(=N)N)C(=O)N[C@@H](CCCCN)C(=O)N[C@@H]([C@@H](C)O)C(=O)N2)NC(=O)[C@H](CCCNC(=N)N)NC(=O)[C@H](CO)NC(=O)[C@H](CCCCN)NC(=O)[C@@H]2CCCN2C(=O)[C@H]([C@@H](C)CC)NC(=O)[C@H]([C@@H](C)O)NC(=O)[C@H](CC(=O)O)NC1=O` [ShK[2-35]] (H-SCIDTIPKSRCTAFQCKHSMKYRLSFCRKTCGTC-OH; disulfide 2-34, 11-27, 16-31), the IC50 in experiment [4] came to 0.049 ± 0.005 nM.

For the molecule E. coli-derived Shk[1-35]-L-Fc, the IC50 in experiment [1] (read-out: Kv1.3 IC50 by IWQ) was found to be 2.4 nM.

Consider “Fc-L-KTX1: Fc-linker fusion of Kaliotoxin1 (KTX1)”, for which the “block of human Kv1.3 current” value in experiment [4] is on record as “blocked the human Kv1.3 current in a dose-dependent fashion”.

Consider `CC[C@H](C)[C@@H]1NC(=O)[C@H](CCCCN)NC(=O)[C@@H](NC(=O)[C@H](CCCCN)NC(=O)[C@@H](NC(=O)[C@H](CC(N)=O)NC(=O)[C@@H](NC(=O)[C@@H](NC(=O)[C@@H](NC(=O)CN)C(C)C)[C@@H](C)CC)[C@@H](C)CC)C(C)C)CSSC[C@@H]2NC(=O)[C@H](CCCCN)NC(=O)CNC(=O)[C@H](Cc3ccccc3)NC(=O)[C@H](CCCNC(=N)N)NC(=O)[C@H](CCSC)NC(=O)CNC(=O)[C@H](C)NC(=O)[C@H](CCCCN)NC(=O)[C@H](CCCCN)NC(=O)[C@@H]3CSSC[C@@H](C(=O)N[C@H](C(=O)N4CCC[C@H]4C(=O)N[C@@H](CCCCN)C(=O)O)[C@@H](C)O)NC(=O)[C@H](C)NC(=O)[C@H](CSSC[C@H](NC(=O)[C@H](CCC(N)=O)NC(=O)[C@H](CCCNC(=N)N)NC(=O)[C@H](CO)NC1=O)C(=O)N[C@@H](CC(C)C)C(=O)N[C@@H](CCC(=O)O)C(=O)N1CCC[C@H]1C(=O)N3)NC(=O)[C@H](CCCCN)NC(=O)CNC(=O)[C@H](CC(N)=O)NC(=O)[C@H](CCSC)NC2=O` [H34A] (H-GVIINVKCKISRQCLEPCKKAGMRFGKCMNGKCACTPK-OH; disulfide 8-28, 14-33, 18-35), for which the IC50 in experiment [2] came out at 0.0725 nM; in experiment [5] it was 0.0573 nM. The “Kv1.3 Selectivity (= Kv1.1/Kv.3 IC50)” value in experiment [3] stood at 797.

Take `CC[C@H](C)[C@@H]1NC(=O)[C@H](CCCCN)NC(=O)[C@@H](NC(=O)[C@H](CCCCN)NC(=O)[C@@H](NC(=O)[C@H](CC(N)=O)NC(=O)[C@@H](NC(=O)[C@@H](NC(=O)[C@@H](NC(=O)CN)C(C)C)[C@@H](C)CC)[C@@H](C)CC)C(C)C)CSSC[C@@H]2NC(=O)[C@H](CCCCN)NC(=O)CNC(=O)[C@H](Cc3ccccc3)NC(=O)[C@H](CCCNC(=N)N)NC(=O)[C@H](CCSC)NC(=O)CNC(=O)[C@H](C)NC(=O)[C@H](CCCCN)NC(=O)[C@H](CCCCN)NC(=O)[C@@H]3CSSC[C@@H](C(=O)N[C@H](C(=O)N4CCC[C@H]4C(=O)N[C@@H](CCCCN)C(=O)O)[C@@H](C)O)NC(=O)[C@H](Cc4c[nH]cn4)NC(=O)[C@H](CSSC[C@H](NC(=O)[C@H](CCC(N)=O)NC(=O)[C@H](CCCNC(=N)N)NC(=O)[C@H](CCCNC(=N)N)NC1=O)C(=O)N[C@@H](CC(C)C)C(=O)N[C@@H](CCC(=O)O)C(=O)N1CCC[C@H]1C(=O)N3)NC(=O)[C@H](CCCCN)NC(=O)CNC(=O)[C@H](CC(N)=O)NC(=O)[C@H](CCSC)NC2=O` [S11R] (H-GVIINVKCKIRRQCLEPCKKAGMRFGKCMNGKCHCTPK-OH; disulfide 8-28, 14-33, 18-35): the IC50 amounted to 2.12 nM in experiment [2] and 4.07 nM in experiment [5]. In experiment [3], the “Kv1.3 Selectivity (= Kv1.1/Kv.3 IC50)” value stood at 228.

Turning to “Fc-L5-ShK[2-35]: human IgG1 Fc fused via 5 amino acid linker to ShK[2-35]”, the IC50 in experiment [4] (read-out: IC50 for block of the outward potassium current) is 0.1 nM.

Turning to E. coli-derived Fc-L-OSK1, in experiment [4] (read-out: Kv1.3 IC50 by WCVC), the IC50 is 3.2 nM.

On to `CC[C@H](C)[C@@H]1NC(=O)[C@H](CCCCN)NC(=O)[C@@H](NC(=O)[C@H](CCCCN)NC(=O)[C@@H](NC(=O)[C@H](CC(N)=O)NC(=O)[C@@H](NC(=O)[C@@H](NC(=O)[C@@H](NC(=O)CN)C(C)C)[C@@H](C)CC)[C@@H](C)CC)C(C)C)CSSC[C@@H]2NC(=O)[C@H](CCCCN)NC(=O)CNC(=O)[C@H](Cc3ccccc3)NC(=O)[C@H](CCCNC(=N)N)NC(=O)[C@H](CCSC)NC(=O)CNC(=O)[C@H](C)NC(=O)[C@H](CCCCN)NC(=O)[C@H](CCCCN)NC(=O)[C@@H]3CSSC[C@@H](C(=O)N[C@H](C(=O)N4CCC[C@H]4C(=O)N[C@@H](CCCCN)C(=O)O)[C@@H](C)O)NC(=O)[C@H](Cc4c[nH]cn4)NC(=O)[C@H](CSSC[C@H](NC(=O)[C@H](CCC(N)=O)NC(=O)[C@H](CCCNC(=N)N)NC(=O)[C@H](CO)NC1=O)C(=O)N[C@@H](CC(C)C)C(=O)N[C@@H](CCC(=O)O)C(=O)N1CCC[C@H]1C(=O)N3)NC(=O)[C@H](CCCCN)NC(=O)CNC(=O)[C@H](CC(N)=O)NC(=O)[C@H](CCCNC(=N)N)NC2=O` [M29R] (H-GVIINVKCKISRQCLEPCKKAGMRFGKCRNGKCHCTPK-OH; disulfide 8-28, 14-33, 18-35), for which the figures for the IC50 in experiment [2] and in experiment [5] were 11.7 nM and 7.68 nM, respectively. For the same molecule, the “Kv1.3 Selectivity (= Kv1.1/Kv.3 IC50)” value in experiment [3] is recorded as 30.

These data come from US7820623B2 (priority 2006, dated 2010).
